The results in this text go back to EP2818471A1, “Nitrogen bicyclic compounds as inhibitors for Scyl1 and Grk5” (Max-Planck-Gesellschaft zur Förderung der Wissenschaften …, priority 2013, dated 2014).

The subject of the test is beta-TC6 cells. Nature of the test: Insulin HTRF assay, relative activity Ar normalized to sunitinib. The test is classed as cell-based. The settings on record: Mus musculus, normalized to positive control sunitinib (5 µM = 100%), Table 10. An excerpt: For further screening of compounds derived from compounds described above for their ability to regulate insulin release an insulin HTRF® (Homogeneous Time-Resolved Fluorescence; Cisbio International, France) was used. This assay is based on two antibodies against insulin binding to different epitopes of insulin. One of these antibodies is coupled to Europium (Ab-Eu-Cryptate) and the other one to the fluorophore XL665 (Ab-XL665). Is insulin secreted into the supernatant of cell culture both antibodies can bind to insulin and come therefore into close proximity which allows upon excitation that energy transfer between (FRET) the long-life fluorescent donor Europium (cryptate) and the acceptors XL665. FRET increases proportionally with insulin concentration.
The automated assay protocol is as follows: • On day 1 15k beta-TC6 cells per well were seeded for 24 or 48 h in 50 µl complete medium. On day 2 or respective on day 3 the medium is removed and cells are washed with 60 µl 1xPBS and 20 µl induction buffer is added using BioTek washer. Subsequently, 10 µl Sunitininb (5 µM f.c.) or the test compound in induction buffer; 0.5% f.c. DMSO (CyBi-well) is transferred to the cells. The cells are then incubated at 37°C for 2, 3, 4h.
The HTRF assay is carried out using Greiner 384-well 784075 assay plates. First 10 µl supernatant is transferred from the cell plates in HTRF plates (CyBi-well). 10 µl of 0, 1, 2, and 4 ng/ml Insulin standard controls in assay medium is used as a control. To each well 10 µl of combined 1:25 Ab-XL665 (Acc) and 1:20 Ab-Eu-Cryptate (WellMate) are added and incubated for 120 min at RT in the dark. Finally HTRF is measured on ViewLux ultra high throughput microplate imager (PerkinElmer).
The evaluation software DataFactoty derives relative activities Ar according to the following equation: Ar = (V-R(0%control))/(R(100%control) -R(0%control)) × 100 [formula] […]
The activity of the compounds was classified according to their Ar (relative activity) into the following ranges: Ar ≥ 100% + + + +; 50% ≤ Ar < 100% + + +; 20% ≤ Ar < 50% + +; 10% < Ar < 20% + [formula] Table 10. Ar (relative activity) values of inventive compounds
A general note: Time-resolved FRET reads energy transfer from a long-lived donor to a nearby acceptor.
Broadly, the Emax is the maximal effect, on the per cent scale that the assay sets. In turn, `Cc1ccccc1-c1cnc2cnc(-c3cccc(F)c3)cn12` [compound 404, 6-(3-fluorophenyl)-3-(o-tolyl)imidazo[1,2-a]pyrazine] yielded an Emax of 10 to 20%. In the case of `COc1ccc(-c2cnc3ccc(NCCCO)nn23)c(OC)c1` [compound 42, 3-[[3-(2,4-dimethoxyphenyl)imidazo[1,2-b]pyridazin-6-yl]amino]propan-1-ol] it was 10 to 20%; in that of `CC(=O)Nc1cccc(-c2cn3c(-c4ccc(C(=O)N(C)C)cc4)cnc3cn2)c1` [compound 432, 4-[6-(3-acetamidophenyl)imidazo[1,2-a]pyrazin-3-yl]-N,N-dimethyl-benzamide], 20 to 50%. With `O=C(O)CCc1ccc(-c2cnc3cnc(-c4ccccc4Cl)cn23)cc1` [compound 331, 3-[4-[6-(2-chlorophenyl)imidazo[1,2-a]pyrazin-3-yl]phenyl]propanoic acid] the figure was 50 to 100%; with `COc1cc(-c2nnc3ccc(-c4cccc(F)c4)cn23)ccc1O` [compound 217, 4-[6-(3-fluorophenyl)-[1,2,4]triazolo[4,3-a]pyridin-3-yl]-2-methoxy-phenol], 50 to 100%. In the case of `COc1cc(-c2cnc3ccc(NCc4cccc(Cl)c4)nn23)ccc1O` [compound 16, 4-[6-[(3-chlorophenyl)methylamino]imidazo[1,2-b]pyridazin-3-yl]-2-methoxy-phenol] it was 20 to 50%; in that of `COc1cc(-c2cn3c(-c4ccc5ncccc5c4)cnc3cn2)cc(OC)c1OC` [compound 440, 6-[6-(3,4,5-trimethoxyphenyl)imidazo[1,2-a]pyrazin-3-yl]quinoline], 20 to 50%; in that of `Cc1ccccc1-c1nnc2ccc(-c3cccc(C(=O)NCCO)c3)cn12` [compound 224, N-(2-hydroxyethyl)-3-[3-(o-tolyl)-[1,2,4]triazolo[4,3-a]pyridin-6-yl]benzamide], 10 to 20%. With `COc1ccc(-c2ccc3nnc(-c4ccncc4)n3c2)cc1OC` [compound 177, 6-(3,4-dimethoxyphenyl)-3-(4-pyridyl)-[1,2,4]triazolo[4,3-a]pyridine], the Emax lay in the range of 20 to 50%.

`CC(C)Oc1cccc(-c2cn3c(-c4cccs4)cnc3cn2)c1` [compound 428, 6-(3-isopropoxyphenyl)-3-(2-thienyl)imidazo[1,2-a]pyrazine] returned an Emax of 20 to 50%. With `O=C(Cc1ccsc1)Nc1cnc2cnc(-c3ccccc3F)cn12` [compound 278, N-[6-(2-fluorophenyl)imidazo[1,2-a]pyrazin-3-yl]-2-(3-thienyl)acetamide] the figure was 10 to 20%; with `Fc1cccc(-c2cnc3cnc(-c4ccccc4)cn23)c1` [compound 385, 3-(3-fluorophenyl)-6-phenyl-imidazo[1,2-a]pyrazine], 20 to 50%; with `Nc1ccc(-c2ccc3nnc(-c4cccc(C(F)(F)F)c4)n3c2)cn1` [compound 214, 5-[3-[3-(trifluoromethyl)phenyl]-[1,2,4]triazolo[4,3-a]pyridin-6-yl]pyridin-2-amine], 20 to 50%. With `COc1cc(-c2nnc3ccc(-c4ccc(N5CCN(C)CC5)cc4)cn23)ccc1O` [compound 215, 2-methoxy-4-[6-[4-(4-methylpiperazin-1-yl)phenyl]-[1,2,4]triazolo[4,3-a]pyridin-3-yl]phenol] the figure was 20 to 50%; with `CN(C)c1ccc(-c2cnc3cnc(-c4ccc(CO)cc4)cn23)cc1` [compound 287, [4-[3-(4-dimethylaminophenyl)imidazo[1,2-a]pyrazin-6-yl]phenyl]methanol], 50 to 100%; with `Cn1cncc1C#Cc1ccc2nnc(-c3ccc4c(c3)OCO4)n2c1` [compound 172, 3-(1,3-benzodioxol-5-yl)-6-[2-(3-methylimidazol-4-yl)ethynyl]-[1,2,4]triazolo[4,3-a]pyridine], 20 to 50%.

As to `Oc1cccc(-c2nnc3ccc(-c4ccc(F)cc4)cn23)c1` [compound 208, 3-[6-(4-fluorophenyl)-[1,2,4]triazolo[4,3-a]pyridin-3-yl]phenol], the maximum response (Emax) lay in the range of 50 to 100%. With `CCOc1cccc(-c2cn3c(-c4cccc(CO)c4)cnc3cn2)c1` [compound 378, [3-[6-(3-ethoxyphenyl)imidazo[1,2-a]pyrazin-3-yl]phenyl]methanol] the figure was 20 to 50%. With `Nc1ccc(-c2cn3c(-c4ccc5c(c4)OCO5)cnc3cn2)cn1` [compound 309, 5-[3-(1,3-benzodioxol-5-yl)imidazo[1,2-a]pyrazin-6-yl]pyridin-2-amine] the figure was 10 to 20%; with `CC(=O)c1ccc(-c2cnc3cccnn23)cc1` [compound 87, 1-(4-imidazo[1,2-b]pyridazin-3-ylphenyl)ethanone], 10 to 20%. With `Oc1cccc(-c2cnc3cnc(-c4cccc(Cl)c4)cn23)c1` [compound 368, 3-[6-(3-chlorophenyl)imidazo[1,2-a]pyrazin-3-yl]phenol] the figure was 20 to 50%. `O=C(NCCO)c1ccc(-c2cnc3cccnn23)cc1` [compound 78, N-(2-hydroxyethyl)-4-imidazo[1,2-b]pyridazin-3-yl-benzamide] returned a maximum response (Emax) of 10 to 20%. In the case of `OCc1cccc(-c2cnc3cnc(-c4ccccc4)cn23)c1` [compound 376, [3-(6-phenylimidazo[1,2-a]pyrazin-3-yl)phenyl]methanol] it was 20 to 50%. In turn, `CN(C)c1ccc(-c2cnc3cnc(-c4cccc(C(N)=O)c4)cn23)cc1` [compound 292, 3-[3-(4-dimethylaminophenyl)imidazo[1,2-a]pyrazin-6-yl]benzamide] registered a maximal response (Emax) of 20 to 50%. As to `CC(C)Oc1cccc(-c2cn3c(-c4ccc5c(c4)OCO5)cnc3cn2)c1` [compound 310, 3-(1,3-benzodioxol-5-yl)-6-(3-isopropoxyphenyl)imidazo[1,2-a]pyrazine], the Emax was in the range of 50 to 100%. In turn, `Fc1cccc(-c2ccc3ncc(-c4ccc5c(c4)OCO5)n3n2)c1` [compound 104, 3-(1,3-benzodioxol-5-yl)-6-(3-fluorophenyl)imidazo[1,2-b]pyridazine] came in with a maximum response (Emax) of 20 to 50%. With `CN(C)CCCNC(=O)c1ccc(-c2cn3c(-c4ccc5c(ccn5C)c4)cnc3cn2)cc1` [compound 398, N-[3-(dimethylamino)propyl]-4-[3-(1-methylindol-5-yl)imidazo[1,2-a]pyrazin-6-yl]benzamide] the figure was 20 to 50%; with `CN(C)c1cccc(-c2cnc3cnc(-c4cccs4)cn23)c1` [compound 345, N,N-dimethyl-3-[6-(2-thienyl)imidazo[1,2-a]pyrazin-3-yl]aniline], 20 to 50%; with `Cc1ccccc1-c1cn2c(-c3ccc(CCC(=O)O)cc3)cnc2cn1` [compound 330, 3-[4-[6-(o-tolyl)imidazo[1,2-a]pyrazin-3-yl]phenyl]propanoic acid], 20 to 50%. Take `FC(F)(F)c1cccc(-c2cnc3ccc(C4CC4)nn23)c1` [compound 136, 6-cyclopropyl-3-[3-(trifluoromethyl)phenyl]imidazo[1,2-b]pyridazine]: the maximal response (Emax) is 10 to 20%. With `CNC(=O)c1ccc(-c2ccc3nnc(-c4ccc(OCCCN(C)C)cc4)n3c2)cc1` [compound 240, 4-[3-[4-[3-(dimethylamino)propoxy]phenyl]-[1,2,4]triazolo[4,3-a]pyridin-6-yl]-N-methyl-benzamide] the figure was 20 to 50%; with `CN1CCN(C(=O)c2cccc(-c3cnc4cnc(-c5ccc(CNc6ccccc6)cc5)cn34)c2)CC1` [compound 359, [3-[6-[4-(anilinomethyl)phenyl]imidazo[1,2-a]pyrazin-3-yl]phenyl]-(4-methylpiperazin-1-yl)methanone], 10 to 20%; with `c1ccc(-c2cn3c(-c4ccc5c(c4)OCO5)cnc3cn2)cc1` [compound 300, 3-(1,3-benzodioxol-5-yl)-6-phenyl-imidazo[1,2-a]pyrazine], 50 to 100%. Regarding `CCCC/C=C/c1cn2c(NC(=O)Cc3cccc(OC)c3)cnc2cn1` [compound 253, N-[6-[(E)-hex-1-enyl]imidazo[1,2-a]pyrazin-3-yl]-2-(3-methoxyphenyl)acetamide], the maximal effect (Emax) was 10 to 20%. In the case of `COc1cc(OC)cc(-c2cn3c(-c4cccc(O)c4)cnc3cn2)c1` [compound 371, 3-[6-(3,5-dimethoxyphenyl)imidazo[1,2-a]pyrazin-3-yl]phenol] it was 20 to 50%; in that of `Nc1cccc(-c2cn3c(-c4cccc(F)c4)cnc3cn2)c1` [compound 384, 3-[3-(3-fluorophenyl)imidazo[1,2-a]pyrazin-6-yl]aniline], 20 to 50%. For `COc1cncc(-c2cnc3ccc(Cc4ccc(F)cc4)nn23)c1` [compound 122, 6-[(4-fluorophenyl)methyl]-3-(5-methoxy-3-pyridyl)imidazo[1,2-b]pyridazine], the maximum response (Emax) was in the range of 20 to 50%.
